Assay [1] concerns the target Protein farnesyltransferase. Description: Displacement of radiolabeled FTI from Farnesyltransferase in v-Ha-ras-transformed Rat1 cells. The assay is classed as cell-based.
Assay [2] has as its target T1, Geranylgeranyl transferase type I (Homo sapiens, UniProt P49354+P53609). Description: Inhibition of the human Geranylgeranyl transferase type I catalyzed incorporation of [3H]GGPP into a biotinylated peptide corresponding to the C-terminus of human K-Ras. The assay is classed as functional.
Assay [3] concerns the target Protein farnesyltransferase (Bos taurus, UniProt P29702+P49355). In words: Inhibition of Farnesyltransferase catalyzed incorporation of [3H]-FPP into recombinant Ras-CVIM. The assay is classed as functional.
Assay [4] has as its target T1, Geranylgeranyl transferase type I. In words: Inhibition of geranylgeranylation of Rap1a in PSN-1 cells. It counts as functional, cell-based.
Assay [5] concerns the target Protein farnesyltransferase (Homo sapiens, UniProt P49354+P49356). Description: Inhibition of HDJ2 farnesylation in PSN-1 cells. It counts as functional, cell-based.

Each structure is given as a SMILES string.

As for `O=C1CN(Cc2cncn2Cc2ccc(-c3ccc(Cl)cc3)nc2)CCN1c1cccc(Cl)c1`, the concentration for half-maximal inhibition (IC50) (usually the concentration needed to halve the response being measured) in assay [1] came out at 250 nM; in assay [2] it was 2300 nM; in assay [3], 19 nM.

With `O=C1CN(Cc2cncn2Cc2ccc(-c3ccc(Cl)cc3)cc2)CCN1c1cccc(Cl)c1`, the concentration for half-maximal inhibition (IC50) amounted to 193 nM in assay [1], 210 nM in assay [2] and 8.7 nM in assay [3].

In the case of `O=C1CN(Cc2cncn2Cc2ccc(-c3ccccc3)cc2)CCN1c1cccc(Cl)c1`, the IC50 in assay [1] came to 1600 nM; in assay [2] it was 1390 nM; in assay [3], 12 nM.

Turning to `O=C1CN2CCc3cncn3Cc3cccc(c3)Oc3ccc4cccc(c4c3)N1CC2`, the IC50 turned out to be 509 nM in assay [2] and 8 nM in assay [3].

Turning to `O=C1CN(Cc2cncn2Cc2ccc(-c3cccc(C(F)(F)F)c3)cc2)CCN1c1cccc(Cl)c1`, the results for the concentration for half-maximal inhibition (IC50) in assay [1], in assay [2] and in assay [3] were 662 nM, 2680 nM and 410 nM, respectively.

As to `O=C1CN(Cc2cncn2Cc2ccc(-c3cc(Cl)cc(Cl)c3)cc2)CCN1c1cccc(Cl)c1`, the figures for the IC50 in assay [1], in assay [2] and in assay [3] were 600 nM, 3030 nM and 35 nM, respectively.

Regarding `COc1cc(Cn2cncc2CN2CCN(c3cccc(Cl)c3)C(=O)C2)ccc1-c1ccc(C(F)(F)F)cc1`, the IC50 was 12 nM in assay [1], 70 nM in assay [2] and 1.6 nM in assay [3].

For the compound `O=C1CN(Cc2cncn2Cc2ccc(-c3ccc(C(F)(F)F)cc3)cc2)CCN1c1cccc(Cl)c1`, the IC50 stood at 29 nM in assay [1] and 140 nM in assay [2].

As for `O=C1CN2CCc3cncn3Cc3ccc(C#CCCC(F)(F)F)c(c3)Oc3ccc4cccc(c4c3)N1CC2`, the IC50 in assay [1] was 0.81 nM; in assay [2] it was 4.8 nM; in assay [3] it was 6.1 nM.

For the compound `COc1cc(Cn2cncc2CCN2CCN(c3cccc(Cl)c3)C(=O)C2)ccc1-c1ccc(C(F)(F)F)cc1`, the figures for the EC50 in assay [4] and in assay [5] were 3400 nM and 28 nM, respectively. Further, the results for the IC50 in assay [1], in assay [2] and in assay [3] were 1.2 nM, 151 nM and 0.17 nM, respectively.

As for `O=C1CN(Cc2cncn2Cc2ccc(-c3ccc(F)cc3)cc2)CCN1c1cccc(Cl)c1`, the figures for the half-maximal inhibitory concentration (IC50) in assay [1], in assay [2] and in assay [3] were 662 nM, 1340 nM and 15 nM, respectively.

As to `N#Cc1ccc2cc1Oc1ccc3cccc(c3c1)N1CCN(CCc3cncn3C2)CC1=O`, the IC50 in assay [1] was 0.19 nM; in assay [2] it was 16 nM; in assay [3] it was 0.25 nM.

With `COc1cc(C(F)(F)F)ccc1-c1ccc(Cn2cncc2CN2CCN(c3cccc(Cl)c3)C(=O)C2)cc1`, the IC50 in assay [2] was found to be 1860 nM; in assay [3], 392 nM.

Regarding `O=C1CN2CCc3cncn3Cc3ccc(CCCCC(F)(F)F)c(c3)Oc3ccc4cccc(c4c3)N1CC2`, the half-maximal effective concentration (EC50) – broadly, the concentration at which the effect is half-maximal – in assay [4] amounted to 800 nM; in assay [5] it was 6.9 nM. Also, the figures for the IC50 in assay [1], in assay [2] and in assay [3] were 0.48 nM, 60 nM and 3.1 nM, respectively.

`O=C1CN(Cc2cncn2Cc2ccc(-c3ccc(OC(F)(F)F)cc3)nc2)CCN1c1cccc(Cl)c1`: the half-maximal inhibitory concentration (IC50) in assay [2] turned out to be 560 nM; in assay [3], 52 nM.

With `O=C1CN(Cc2cncn2Cc2ccc(-c3ccc(C(F)(F)F)cc3)nc2)CCN1c1cccc(Cl)c1`, the concentration for half-maximal inhibition (IC50) was 159 nM in assay [1], 509 nM in assay [2] and 14 nM in assay [3].

As to `O=C1CN2CCc3cncn3Cc3ccc(Br)c(c3)Oc3ccc4cccc(c4c3)N1CC2`, the concentration for half-maximal inhibition (IC50) is 2 nM in assay [1], 161 nM in assay [2] and 1.2 nM in assay [3].

With `CCCCc1ccc2cc1Oc1ccc3cccc(c3c1)N1CCN(CCc3cncn3C2)CC1=O`, the half-maximal inhibitory concentration (IC50) in assay [2] came to 2480 nM; in assay [3], 10.3 nM.

Regarding `O=C1CN2CCc3cncn3Cc3ccc(-c4ccc(C(F)(F)F)cc4)c(c3)Oc3ccc4cccc(c4c3)N1CC2`, the IC50 in assay [1] stood at 1.1 nM; in assay [2], 15.6 nM; in assay [3], 2.1 nM.

With `N#Cc1ccc(Cn2cncc2CN2CCN(c3cccc(Cl)c3)C(=O)C2)cc1` [L-778123 FREE BASE], the half-maximal inhibitory concentration (IC50) in assay [3] turned out to be 2 nM.

With `O=C1CN(Cc2cncn2Cc2ccc(-c3cc(C(F)(F)F)cc(C(F)(F)F)c3)cc2)CCN1c1cccc(Cl)c1`, the IC50 was 1870 nM in assay [2] and 3500 nM in assay [3].

Regarding `O=C1CN(Cc2cncn2Cc2ccc(-c3cccc(Cl)c3)cc2)CCN1c1cccc(Cl)c1`, the IC50 in assay [2] stood at 8450 nM; in assay [3], 17 nM.

Values taken from ChEMBL document CHEMBL1135967, “Potent inhibitors of farnesyltransferase and geranylgeranyltransferase-I” (Bioorg Med Chem Lett, 2002).
